The text below walks through data of patent US20220024921A1, “1,3,4-OXADIAZOLONE COMPOUND AND PHARMACEUTICAL” (NIPPON SHINYAKU CO., LTD., priority 2018, published 2022).

Where a name gives a salt, the structure may show the parent alone.

For test [1], the target named is T1, PIM1 serine/threonine kinase (Homo sapiens, UniProt P11309).
T1 construct: purchased Carna Bioscience, Inc
The test can be described thus: PIM1 serine/threonine kinase inhibitory effect. The settings on record: PIM1 serine/threonine kinase activity; ATP 40 μM; 30° C., 30 minutes. Type of test: biochemical. As to the method: Each test substance was prepared to 10 mM with dimethylsulfoxide (DMSO), and further diluted with DMSO so as to have concentrations of 1000, 300, 100, 30, 10, 3, 1, 0.3, 0.1, 0.03, 0.01, and 0.001 μM. Moreover, each dilution was further diluted 33.3-fold with an assay buffer to prepare a test substance solution. The composition of the assay buffer was 50 mM HEPES (pH 7.0), 0.02% NaN3, 0.01% Bovine Serum Albumin, 0.1 mM Orthovanadate, 1 mM Dithiothreitol, and 5 mM MgCl2.
5 μL of each test substance solution was added to 384-well plates (n=2), and then 2.5 μL of a substrate solution (substrate 3-biotin (Cisbio Bioassays SAS), final concentration in the reaction solution: 0.5 μM) and 2.5 μL of an ATP solution (in the cases of PIM1, 2, 3, the final concentrations in the reaction solutions were 40, 2, and 10 μM, respectively) were added, 5 μL of each of PIM1, 2, 3 serine/threonine kinase solutions (Carna Bioscience, Inc., the final concentrations in the reaction solutions were 0.15, 1.6, and 0.25 μg/ml, respectively) was finally added, and the mixture was reacted at 30° C. for 30 minutes. The test substance concentrations in the reaction solutions are 10000, 3000, 1000, 300, 100, 30, 10, 3, 1, 0.3, 0.1, and 0.01 nM.
Thereafter, 15 μL of each detection solution (62.5 nM Streptavidin-XL665 (Cisbio Bioassays SAS), […] STK antibody-Cryptate (Cisbio Bioassays SAS), 50 mM HEPES (pH 7.0), 0.8 M KF, 0.1% Bovine Serum Albumin, 20 mM ethylenediaminetetraacetic acid) was added to each well. After stirring, the mixture was reacted at 30° C. for 1 hour. Absorbance (OD620, OD665) at 620 and 665 nm was measured with a microplate reader (SpectraMax M5e, Molecular Devices, LLC).
Non-linear regression analysis was performed by an SAS system (SAS Institute Inc.) using the ratio (OD665/OD620) of the measured absorbance to calculate a test substance concentration (IC50) that inhibits PIM1 serine/threonine kinase activity by 50%.

The target in test [2] is PIM1 transgenic cells (Ba/F3) (Homo sapiens, UniProt P11309). The test is described as follows: Proliferation inhibitory effect on PIM1 transgenic cells. It counts as cell-based, mouse. The settings on record: proliferation inhibition, 72 hours, Cell Counting Kit-8, read-out: PIM1 IC50. An excerpt:
Human PIM1, 2, and 3 genes were inserted into the multi-cloning sites of retrovirus expression vectors pMYs-IRES-GFP, respectively, to prepare gene transfer vectors. Then, each gene transfer vector was introduced into packaging cells PLAT-E derived from a human fetal kidney cell line in the logarithmic growth phase, using a transfection reagent (FuGENE6, Promega Corporation). Since the culture supernatant of PLAT-E after gene transfer contained virus particles for gene transfer, the culture supernatant was collected and used as a medium for gene transfer. The medium for gene transfer was added to a plate coated with RetroNectin, and the plate was incubated to attach the virus particles to the plate. Then, a mouse pro-B cell line Ba/F3 in the logarithmic growth phase was seeded on the plate and infected with the virus to prepare PIM1, 2, or 3 transgenic cells that proliferate in a PIM 1, 2, or 3-dependent manner. The expression of PIM1, 2, or 3 protein in each cell was confirmed by Western blotting.
Each test substance was prepared to 10 mM with dimethylsulfoxide (DMSO), and diluted with DMSO so as to have concentrations of 3000, 1000, 300, 100, 30, 10, 3, and 1 μM. Moreover, each dilution was further diluted 10-fold with distilled water to prepare a test substance solution.
PIM1, 2, 3-expressing cells were seeded on a 96-well plate, and each test substance solution prepared the next day was added such that final concentrations were 10000, 3000, 1000, 300, 100, 30, 10, 3, and 1 nM. 72 hours after the addition, 10 μL of Cell Counting Kit-8 (DOJINDO LABORATORIES) was added to each well. After incubation for 1 to 4 hours, absorbance OD450 at 450 nm was measured. In addition, absorption OD650 at 650 nm as a reference wavelength was measured.
OD450-OD650 for each condition was calculated, and then the inhibition rates when OD450-OD650 of negative control (DMSO only) and OD450-OD650 of Blank (without cells) were set to 0% and 100%, respectively, were calculated. Then, non-linear regression analysis was performed for logarithmic dose and inhibition rate using a two-parameter logistic model to estimate IC50 values.

T1 sequence (P11309 whole entry): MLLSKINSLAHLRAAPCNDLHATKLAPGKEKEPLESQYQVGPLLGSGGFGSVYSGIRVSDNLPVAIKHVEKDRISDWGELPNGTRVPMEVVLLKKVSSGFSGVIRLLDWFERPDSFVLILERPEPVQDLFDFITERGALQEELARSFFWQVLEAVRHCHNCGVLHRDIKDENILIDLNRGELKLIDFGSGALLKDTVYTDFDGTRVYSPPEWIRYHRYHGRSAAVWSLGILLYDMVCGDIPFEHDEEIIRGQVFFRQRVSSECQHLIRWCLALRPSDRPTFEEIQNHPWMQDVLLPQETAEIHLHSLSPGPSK
Sequence of PIM1 transgenic cells (Ba/F3) (P11309 whole entry, stated change not applied): as the sequence (P11309 whole entry) above

In the case of `N[C@H]1CC[C@H](Nc2cc(-c3n[nH]c(=O)o3)ccc2Cl)CC1` [Example 32, 5-(3-{[(1r,4r)-4-aminocyclohexyl]amino}-4-chlorophenyl)-1,3,4-oxadiazol-2(3H)-one], the concentration for half-maximal inhibition (IC50) in test [1] was found to be 5.7 nM. Besides, the GI50 in test [2] was found to be 410 nM.

In test [1], `N[C@H]1CC[C@@H](Nc2cc(-c3n[nH]c(=O)o3)ccc2Cl)CC1` [Example 33, 5-(3-{[(1s,4s)-4-aminocyclohexyl]amino}-4-chlorophenyl)-1,3,4-oxadiazol-2(3H)-one hydrochloride] showed an IC50 of 6.2 nM. Also, the GI50 in test [2] was 730 nM.

In the case of `N[C@H]1CC[C@H](Nc2cc(-c3n[nH]c(=O)o3)ccc2Br)CC1` [Example 35, 5-(3-{[(1r,4r)-4-aminocyclohexyl]amino}-4-bromophenyl)-1,3,4-oxadiazol-2(3H)-one hydrochloride], inhibition in test [1] was half-maximal at 4.9 nM (IC50). Besides, in test [2], the GI50 amounted to 510 nM.

Consider `N[C@H]1CC[C@H](Nc2cc(-c3n[nH]c(=O)o3)cc(F)c2C(F)(F)F)CC1` [Example 36, 5-[3-{[(1r,4r)-4-aminocyclohexyl]amino}-5-fluoro-4-(trifluoromethyl)phenyl]-1,3,4-oxadiazol-2(3H)-one hydrochloride], for which, in test [1], the IC50 worked out at 3.1 nM. Also, the GI50 in test [2] is 570 nM.

As to `N[C@H]1CC[C@H](Nc2cc(-c3n[nH]c(=O)o3)ccc2OC(F)(F)F)CC1` [Example 38, 5-[3-{[(1r,4r)-4-aminocyclohexyl]amino}-4-(trifluoromethoxy)phenyl]-1,3,4-oxadiazol-2(3H)-one hydrochloride], half-maximal inhibition in test [1] (IC50) was put at 20 nM. The GI50 in test [2] stood at 550 nM.

`CC(N)[C@H]1CC[C@H](Nc2cc(-c3n[nH]c(=O)o3)ccc2C(F)(F)F)CC1` (stereo partly drawn) [Example 39, 5-[3-{[(1r,4r)-4-(1-aminoethyl)cyclohexyl]amino}-4-(trifluoromethyl)phenyl]-1,3,4-oxadiazol-2(3H)-one hydrochloride] had an IC50 in test [1] of 2.2 nM. For the same molecule, in test [2], the GI50 turned out to be 100 nM.

Regarding `N[C@H]1CC[C@H](Nc2cc(-c3n[nH]c(=O)o3)cc(F)c2Cl)CC1` [Example 40, 5-(3-{[(1r,4r)-4-aminocyclohexyl]amino}-4-chloro-5-fluorophenyl)-1,3,4-oxadiazol-2(3H)-one hydrochloride], the IC50 in test [1] came to 6.2 nM. Moreover, in test [2], the GI50 turned out to be 440 nM.

Take `O=c1[nH]nc(-c2ccc(C(F)(F)F)c(NC3CC34CCNCC4)c2)o1` (stereo not drawn) [Example 42, 5-{3-[(6-azaspiro[2.5]octan-1-yl)amino]-4-(trifluoromethyl)phenyl}-1,3,4-oxadiazol-2(3H)-one hydrochloride]: in test [1], inhibition was half-maximal at 10 nM (IC50). The GI50 in test [2] was found to be 270 nM.

With `NC1CC2(C1)CC(Nc1cc(-c3n[nH]c(=O)o3)ccc1C(F)(F)F)C2` (stereo not drawn) [Example 43, 5-{3-[(6-aminospiro[3.3]heptan-2-yl)amino]-4-(trifluoromethyl)phenyl}-1,3,4-oxadiazol-2(3H)-one hydrochloride], in test [1], inhibition was half-maximal at 9.2 nM (IC50). Moreover, the GI50 in test [2] is 190 nM.

`NCC[C@H]1CC[C@H](Nc2cc(-c3n[nH]c(=O)o3)ccc2C(F)(F)F)CC1` [Example 44, 5-[3-{[(1r,4r)-4-(2-aminoethyl)cyclohexyl]amino}-4-(trifluoromethyl)phenyl]-1,3,4-oxadiazol-2(3H)-one hydrochloride] came in with a 50% inhibitory concentration (IC50) in test [1] of 4.2 nM. In test [2], the GI50 stood at 330 nM.

For the molecule `O=c1[nH]nc(-c2ccc(C(F)(F)F)c(N[C@H]3CCC34CCNCC4)c2)o1` [Example 45, 5-[3-{[(1S)-7-azaspiro[3.5]nonan-1-yl]amino}-4-(trifluoromethyl)phenyl]-1,3,4-oxadiazol-2(3H)-one hydrochloride], the IC50 in test [1] is 20 nM. Also, the GI50 in test [2] was found to be 390 nM.

For `O=c1[nH]nc(-c2ccc(C(F)(F)F)c(N[C@@H]3CCC34CCNCC4)c2)o1` [Example 46, 5-[3-{[(1R)-7-azaspiro[3.5]nonan-1-yl]amino}-4-(trifluoromethyl)phenyl]-1,3,4-oxadiazol-2(3H)-one hydrochloride], the IC50 in test [1] stood at 290 nM. Also, the GI50 in test [2] worked out at 2600 nM.

`O=c1[nH]nc(-c2ccc(Cl)c(NCC3CCNCC3)c2)o1` [Example 47, 5-(4-chloro-3-{[(piperidin-4-yl)methyl]amino}phenyl)-1,3,4-oxadiazol-2(3H)-one hydrochloride]: the IC50 in test [1] came out at 7.6 nM. Also, the GI50 in test [2] is 820 nM.

`O=c1[nH]nc(-c2ccc(C(F)(F)F)c(NCC3CCNCC3)c2)o1` [Example 48, 5-[3-{[(piperidin-4-yl)methyl]amino}-4-(trifluoromethyl)phenyl]-1,3,4-oxadiazol-2(3H)-one hydrochloride] showed an IC50 in test [1] of 4.4 nM. For the same molecule, in test [2], the GI50 was 1200 nM.

Molecule `O=c1[nH]nc(-c2ccc(Cl)c(NC[C@@H]3CCNC3)c2)o1` [Example 49, 5-[4-chloro-3-({[(3R)-pyrrolidin-3-yl]methyl}amino)phenyl]-1,3,4-oxadiazol-2(3H)-one hydrochloride] had a half-inhibitory concentration (IC50) in test [1] of 18 nM. In addition, the GI50 in test [2] is 7600 nM.

`O=c1[nH]nc(-c2ccc(Br)c(NCC3CCNCC3)c2)o1` [Example 50, 5-(4-bromo-3-{[(piperidin-4-yl)methyl]amino}phenyl)-1,3,4-oxadiazol-2(3H)-one hydrochloride]: in test [1], it took 3.7 nM to reach half-maximal inhibition (IC50). Moreover, the GI50 in test [2] amounted to 1800 nM.

In test [1], `CN(CC1CCNCC1)c1cc(-c2n[nH]c(=O)o2)ccc1C(F)(F)F` [Example 51, 5-[3-{methyl[(piperidin-4-yl)methyl]amino}-4-(trifluoromethyl)phenyl]-1,3,4-oxadiazol-2(3H)-one hydrochloride] gave a concentration for half-maximal inhibition (IC50) of 14 nM. Further, the GI50 in test [2] worked out at 3100 nM.

In test [1], `O=c1[nH]nc(-c2ccc(C(F)(F)F)c(NC[C@H]3CCCNC3)c2)o1` [Example 53, 5-[3-({[(3S)-piperidin-3-yl]methyl}amino)-4-(trifluoromethyl)phenyl]-1,3,4-oxadiazol-2(3H)-one hydrochloride] registered an IC50 of 15 nM. Besides, in test [2], the GI50 is 1600 nM.

In test [1], `O=c1[nH]nc(-c2ccc(C(F)(F)F)c(NC[C@@H]3CCCNC3)c2)o1` [Example 54, 5-[3-({[(3R)-piperidin-3-yl]methyl}amino)-4-(trifluoromethyl)phenyl]-1,3,4-oxadiazol-2(3H)-one hydrochloride] had an IC50 of 13 nM. Also, the GI50 in test [2] was found to be 1200 nM.

As to `CCC(Nc1cc(-c2n[nH]c(=O)o2)ccc1C(F)(F)F)C1CCNCC1` (stereo not drawn) [Example 56, 5-[3-{[1-(piperidin-4-yl)propyl]amino}-4-(trifluoromethyl)phenyl]-1,3,4-oxadiazol-2(3H)-one hydrochloride], in test [1], the half-inhibitory concentration (IC50) came out at 7 nM. Further, in test [2], the GI50 came out at 200 nM.

For the molecule `CC1(CNc2cc(-c3n[nH]c(=O)o3)ccc2C(F)(F)F)CCNCC1` [Example 57, 5-[3-{[(4-methylpiperidin-4-yl)methyl]amino}-4-(trifluoromethyl)phenyl]-1,3,4-oxadiazol-2(3H)-one hydrochloride], 6 nM corresponded to half-maximal inhibition in test [1] (IC50). In addition, in test [2], the GI50 was 370 nM.
